Assay results taken from PMC12584665, “In vitro and in vivo efficacy of vancomycin against Elizabethkingia species and the impact of increased vancomycin MICs” (Microbiology Spectrum, 2025).
In brackets after ≈: the same amount, converted by molar mass. Read-outs that look alike come from different tables or passages of the source.

Experiments:
[1] = test system: Elizabethkingia anophelis; assay: Broth microdilution (BMD) MIC; assay type: cell-based; settings: for MIC: Elizabethkingia anophelis; for susceptibility category: all susceptibility tests, CLSI criteria for Enterococcus spp. (susceptible MIC <= 4 mg/L, zone >= 17 mm)
Description: (§1) Eighteen E. anophelis clinical isolates from the nationwide surveillance program (Taiwan Surveillance of Antimicrobial Resistance) were well characterized in our previous study ([7]) and were selected for susceptibility testing and minimum bactericidal concentration (MBC) assays. Among them, five isolates with different clonality (underlined strains in Fig. S1) were selected for the time-kill assays and in vivo experiments.
(§2) Broth microdilution, disc diffusion, Etest, and agar dilution assays were conducted following CLSI guidelines to determine vancomycin MICs ([8]). […] Criteria for Staphylococcus spp. were not adopted due to the lack of a zone diameter breakpoint. MBCs were determined following CLSI guidelines ([8]).

[2] = test system: Elizabethkingia anophelis; assay: Minimum bactericidal concentration (MBC) test; assay type: cell-based; settings: for MBC: Elizabethkingia anophelis
Description: as §1, §2

SMILES: CN[C@H](CC(C)C)C(=O)N[C@H]1C(=O)N[C@@H](CC(N)=O)C(=O)N[C@H]2C(=O)N[C@H]3C(=O)N[C@H](C(=O)N[C@H](C(=O)O)c4cc(O)cc(O)c4-c4cc3ccc4O)[C@H](O)c3ccc(c(Cl)c3)Oc3cc2cc(c3O[C@@H]2O[C@H](CO)[C@@H](O)[C@H](O)[C@H]2O[C@H]2C[C@](C)(N)[C@H](O)[C@H](C)O2)Oc2ccc(cc2Cl)[C@H]1O [Vancomycin]
- MICs, range over isolates ([1]; 18 E. anophelis isolates, broth microdilution, concordant with agar dilution and Etest): 16 to 32 mg/L
- MIC ([1]; read-out: MIC, BMD, E. anophelis clinical isolate 2008N05-106): 32 µg/mL (≈ 22.1 µM)
- MIC ([1]; read-out: MIC, BMD, E. anophelis clinical isolate 2008S01-229): 32 µg/mL (≈ 22.1 µM)
- MIC ([1]; read-out: MIC, BMD, E. anophelis clinical isolate 2014C06-157): 32 µg/mL (≈ 22.1 µM)
- MIC ([1]; read-out: MIC, BMD, E. anophelis clinical isolate 2016N17-576): 32 µg/mL (≈ 22.1 µM)
- MIC ([1]; read-out: MIC, BMD, E. anophelis clinical isolate 2018C04-213): 16 µg/mL (≈ 11 µM)
- MIC ([1]; read-out: MIC, BMD, E. anophelis clinical isolate 2018C04-224): 16 µg/mL (≈ 11 µM)
- MIC ([1]; read-out: MIC, BMD, E. anophelis clinical isolate 2018C07-210): 16 µg/mL (≈ 11 µM)
- MIC ([1]; read-out: MIC, BMD, E. anophelis clinical isolate 2018C07-234): 16 µg/mL (≈ 11 µM)
- MIC ([1]; read-out: MIC, BMD, E. anophelis clinical isolate 2018C08-127): 16 µg/mL (≈ 11 µM)
- MIC ([1]; read-out: MIC, BMD, E. anophelis clinical isolate 2018E03-151): 16 µg/mL (≈ 11 µM)
- MIC ([1]; read-out: MIC, BMD, E. anophelis clinical isolate 2018E04-135): 16 µg/mL (≈ 11 µM)
- MIC ([1]; read-out: MIC, BMD, E. anophelis clinical isolate 2018N16-057): 16 µg/mL (≈ 11 µM)
- MIC ([1]; read-out: MIC, BMD, E. anophelis clinical isolate 2018N17-036): 32 µg/mL (≈ 22.1 µM)
- MIC ([1]; read-out: MIC, BMD, E. anophelis clinical isolate 2018N17-073): 16 µg/mL (≈ 11 µM)
- MIC ([1]; read-out: MIC, BMD, E. anophelis clinical isolate 2018N17-153): 16 µg/mL (≈ 11 µM)
- MIC ([1]; read-out: MIC, BMD, E. anophelis clinical isolate 2018N21-226): 16 µg/mL (≈ 11 µM)
- MIC ([1]; read-out: MIC, BMD, E. anophelis clinical isolate 2018S09-023): 16 µg/mL (≈ 11 µM)
- MIC ([1]; read-out: MIC, BMD, E. anophelis clinical isolate 2018S11-172): 32 µg/mL (≈ 22.1 µM)
- MIC ([1]; read-out: MICs as summarised in the discussion, E. anophelis, isolates not specified): 32 µg/mL (≈ 22.1 µM)
- susceptibility category [1]: non-susceptible
- susceptibility category ([1]; listed as vancomycin): resistant
- MBCs relative to MICs ([2]; 18 E. anophelis isolates): within a twofold range of MICs
- MBC ([2]; E. anophelis clinical isolate 2008N05-106): 16 µg/mL (≈ 11 µM)
- MBC ([2]; E. anophelis clinical isolate 2008S01-229): 32 µg/mL (≈ 22.1 µM)
- MBC ([2]; E. anophelis clinical isolate 2014C06-157): 16 µg/mL (≈ 11 µM)
- MBC ([2]; E. anophelis clinical isolate 2016N17-576): 32 µg/mL (≈ 22.1 µM)
- MBC ([2]; E. anophelis clinical isolate 2018C04-213): 16 µg/mL (≈ 11 µM)
- MBC ([2]; E. anophelis clinical isolate 2018C04-224): 16 µg/mL (≈ 11 µM)
- MBC ([2]; E. anophelis clinical isolate 2018C07-210): 16 µg/mL (≈ 11 µM)
- MBC ([2]; E. anophelis clinical isolate 2018C07-234): 16 µg/mL (≈ 11 µM)
- MBC ([2]; E. anophelis clinical isolate 2018C08-127): 16 µg/mL (≈ 11 µM)
- MBC ([2]; E. anophelis clinical isolate 2018E03-151): 16 µg/mL (≈ 11 µM)
- MBC ([2]; E. anophelis clinical isolate 2018E04-135): 16 µg/mL (≈ 11 µM)
- MBC ([2]; E. anophelis clinical isolate 2018N16-057): 16 µg/mL (≈ 11 µM)
- MBC ([2]; E. anophelis clinical isolate 2018N17-036): 32 µg/mL (≈ 22.1 µM)
- MBC ([2]; E. anophelis clinical isolate 2018N17-073): 16 µg/mL (≈ 11 µM)
- MBC ([2]; E. anophelis clinical isolate 2018N17-153): 16 µg/mL (≈ 11 µM)
- MBC ([2]; E. anophelis clinical isolate 2018N21-226): 16 µg/mL (≈ 11 µM)
- MBC ([2]; E. anophelis clinical isolate 2018S09-023): 16 µg/mL (≈ 11 µM)
- MBC ([2]; E. anophelis clinical isolate 2018S11-172): 32 µg/mL (≈ 22.1 µM)
